Test results taken from EPA's ToxValDB 9.5.

System: Rattus norvegicus
Conditions: short-term, duration: 28 days, oral, gavage, Sprague-Dawley

O=C(O)C(F)(F)C(F)(F)C(F)(F)C(F)(F)C(F)(F)F [Perfluorohexanoic acid]
LOEL (F, Clinical chemistry_Alanine aminotransferase): 500 mg/kg-day
NOEL (F, Clinical chemistry_Albumin): 1000 mg/kg-day
LOEL (F, Clinical chemistry_Albumin/globulin ratio): 1000 mg/kg-day
LOEL (F, Clinical chemistry_Alkaline phosphatase): 1000 mg/kg-day
LOEL (F, Clinical chemistry_Aspartate aminotransferase): 500 mg/kg-day
NOEL (F, Clinical chemistry_Cholesterol): 1000 mg/kg-day
NOEL (F, Clinical chemistry_Creatinine kinase): 1000 mg/kg-day
NOEL (F, Clinical chemistry_Direct bilirubin): 1000 mg/kg-day
NOEL (F, Clinical chemistry_Free thyroxine): 1000 mg/kg-day
LOEL (F, Clinical chemistry_Globulin): 1000 mg/kg-day
NOEL (F, Clinical chemistry_Indirect bilirubin): 1000 mg/kg-day
NOEL (F, Clinical chemistry_Sorbitol dehydrogenase): 1000 mg/kg-day
NOEL (F, Clinical chemistry_Testosterone): 1000 mg/kg-day
NOEL (F, Clinical chemistry_Thyroid stimulating hormone): 1000 mg/kg-day
LOEL (F, Clinical chemistry_Total bile acids): 1000 mg/kg-day
LOEL (F, Clinical chemistry_Total protein): 1000 mg/kg-day
NOEL (F, Clinical chemistry_Total thyroxine): 1000 mg/kg-day
NOEL (F, Clinical chemistry_Total triiodothyronine): 1000 mg/kg-day
NOEL (F, Clinical chemistry_Triglycerides): 1000 mg/kg-day
LOEL (F, Gene expression_Acox1): 500 mg/kg-day
LOEL (F, Gene expression_Cyp2b1): 62.6 mg/kg-day
LOEL (F, Gene expression_Cyp2b2): 62.6 mg/kg-day
LOEL (F, Gene expression_Cyp4a1): 500 mg/kg-day
LOEL (F, Hematology_Erythrocytes): 250 mg/kg-day
LOEL (F, Hematology_Hematocrit): 250 mg/kg-day
LOEL (F, Hematology_Hemoglobin): 250 mg/kg-day
LOEL (F, Hematology_Mean corpuscular hemoglobin concentration): 1000 mg/kg-day
LOEL (F, Hematology_Mean corpuscular volume): 500 mg/kg-day
LOEL (F, Hematology_Platelets): 1000 mg/kg-day
LOEL (F, Hematology_Reticulocytes): 500 mg/kg-day
NOEL (F, Nonneoplastic effects_Bone marrow - Hypocellularity): 1000 mg/kg-day
NOEL (F, Nonneoplastic effects_Forestomach - Epithelium, hyperplasia): 1000 mg/kg-day
NOEL (F, Nonneoplastic effects_Forestomach - Inflammation, chronic active): 1000 mg/kg-day
LOEL (F, Nonneoplastic effects_Kidney - Nephropathy, chronic progressive): 1000 mg/kg-day
NOEL (F, Nonneoplastic effects_Liver - Hepatocyte, Necrosis): 1000 mg/kg-day
LOEL (F, Nonneoplastic effects_Liver - Hepatocyte, cytoplasmic alteration): 1000 mg/kg-day
LOEL (F, Nonneoplastic effects_Liver - Hepatocyte, hypertrophy): 1000 mg/kg-day
NOEL (F, Nonneoplastic effects_Liver - Hepatocyte, vacuolization cytoplasmic): 1000 mg/kg-day
NOEL (F, Nonneoplastic effects_Lymph nodes - Mandibular, atrophy): 1000 mg/kg-day
NOEL (F, Nonneoplastic effects_Lymph nodes - Mesenteric, atrophy): 1000 mg/kg-day
LOEL (F, Nonneoplastic effects_Nose - Olfactory epithelium, degeneration): 250 mg/kg-day
LOEL (F, Nonneoplastic effects_Nose - Olfactory epithelium, hyperplasia): 250 mg/kg-day
LOEL (F, Nonneoplastic effects_Nose - Olfactory epithelium, inflammation, suppurative): 500 mg/kg-day
NOEL (F, Nonneoplastic effects_Nose - Respiratory epithelium, hyperplasia): 1000 mg/kg-day
NOEL (F, Nonneoplastic effects_Nose - Respiratory epithelium, inflammation, chronic active): 1000 mg/kg-day
NOEL (F, Nonneoplastic effects_Spleen - Atrophy): 1000 mg/kg-day
LOEL (F, Nonneoplastic effects_Spleen - Extramedullary hematopoiesis, increased): 1000 mg/kg-day
NOEL (F, Nonneoplastic effects_Thymus - Atrophy): 1000 mg/kg-day
NOEL (F, Nonneoplastic effects_Thymus - Lymphocyte, apoptosis): 1000 mg/kg-day
NOEL (F, Nonneoplastic effects_Thyroid gland - Follicular cell hypertrophy): 1000 mg/kg-day
LOEL (F, Organ weights_Liver - Absolute): 500 mg/kg-day
LOEL (F, Organ weights_Liver - Relative): 500 mg/kg-day
NOEL (F, Organ weights_R. adrenal gland - Absolute): 1000 mg/kg-day
NOEL (F, Organ weights_R. adrenal gland - Relative): 1000 mg/kg-day
LOEL (F, Organ weights_R. kidney - Absolute): 1000 mg/kg-day
LOEL (F, Organ weights_R. kidney - Relative): 1000 mg/kg-day
NOEL (F, Organ weights_Spleen - Absolute): 1000 mg/kg-day
NOEL (F, Organ weights_Spleen - Relative): 1000 mg/kg-day
NOEL (F, Organ weights_Thymus - Absolute): 1000 mg/kg-day
NOEL (F, Organ weights_Thymus - Relative): 1000 mg/kg-day
NOEL (F, Organ weights_Thyroid gland - Absolute): 1000 mg/kg-day
NOEL (F, Organ weights_Thyroid gland - Relative): 1000 mg/kg-day
NOEL (F, Survival rates): 1000 mg/kg-day
NOEL (F, body weight): 1000 mg/kg-day
LOEL (M, Clinical chemistry_Alanine aminotransferase): 500 mg/kg-day
LOEL (M, Clinical chemistry_Albumin): 125 mg/kg-day
LOEL (M, Clinical chemistry_Albumin/globulin ratio): 250 mg/kg-day
LOEL (M, Clinical chemistry_Alkaline phosphatase): 500 mg/kg-day
LOEL (M, Clinical chemistry_Aspartate aminotransferase): 500 mg/kg-day
LOEL (M, Clinical chemistry_Cholesterol): 62.6 mg/kg-day
NOEL (M, Clinical chemistry_Creatinine kinase): 1000 mg/kg-day
NOEL (M, Clinical chemistry_Direct bilirubin): 1000 mg/kg-day
LOEL (M, Clinical chemistry_Free thyroxine): 62.6 mg/kg-day
LOEL (M, Clinical chemistry_Globulin): 125 mg/kg-day
LOEL (M, Clinical chemistry_Sorbitol dehydrogenase): 1000 mg/kg-day
NOEL (M, Clinical chemistry_Testosterone): 1000 mg/kg-day
NOEL (M, Clinical chemistry_Thyroid stimulating hormone): 1000 mg/kg-day
LOEL (M, Clinical chemistry_Total bile acids): 1000 mg/kg-day
LOEL (M, Clinical chemistry_Total protein): 250 mg/kg-day
LOEL (M, Clinical chemistry_Total thyroxine): 62.6 mg/kg-day
LOEL (M, Clinical chemistry_Total_triiodothyronine): 62.6 mg/kg-day
NOEL (M, Clinical chemistry_Triglycerides): 1000 mg/kg-day
LOEL (M, Gene expression_Acox1): 500 mg/kg-day
LOEL (M, Gene expression_Acyl-CoA oxidase): 250 mg/kg-day
LOEL (M, Gene expression_Cyp2b1): 62.6 mg/kg-day
LOEL (M, Gene expression_Cyp2b2): 62.6 mg/kg-day
LOEL (M, Gene expression_Cyp4a1): 62.6 mg/kg-day
LOEL (M, Hematology_Erythrocytes): 62.6 mg/kg-day
LOEL (M, Hematology_Hematocrit): 62.6 mg/kg-day
LOEL (M, Hematology_Hemoglobin): 62.6 mg/kg-day
LOEL (M, Hematology_Mean corpuscular hemoglobin concentration): 1000 mg/kg-day
LOEL (M, Hematology_Mean corpuscular volume): 250 mg/kg-day
LOEL (M, Hematology_Platelets): 500 mg/kg-day
LOEL (M, Hematology_Reticulocytes): 500 mg/kg-day
NOEL (M, Nonneoplastic effects_Bone marrow - Hypocellularity): 1000 mg/kg-day
NOEL (M, Nonneoplastic effects_Epididymis - Duct, exfoliated germ cell): 1000 mg/kg-day
NOEL (M, Nonneoplastic effects_Epididymis - Epithelium, apoptosis): 1000 mg/kg-day
NOEL (M, Nonneoplastic effects_Epididymis - Hypospermia): 1000 mg/kg-day
NOEL (M, Nonneoplastic effects_Forestomach - Epithelium, hyperplasia): 1000 mg/kg-day
NOEL (M, Nonneoplastic effects_Forestomach - Inflammation, chronic active): 1000 mg/kg-day
NOEL (M, Nonneoplastic effects_Kidney - Nephropathy, chronic progressive): 1000 mg/kg-day
NOEL (M, Nonneoplastic effects_Liver - Hepatocyte, Necrosis): 1000 mg/kg-day
LOEL (M, Nonneoplastic effects_Liver - Hepatocyte, cytoplasmic alteration): 1000 mg/kg-day
LOEL (M, Nonneoplastic effects_Liver - Hepatocyte, hypertrophy): 500 mg/kg-day
NOEL (M, Nonneoplastic effects_Liver - Hepatocyte, vacuolization cytoplasmic): 1000 mg/kg-day
NOEL (M, Nonneoplastic effects_Lymph nodes - Mandibular, atrophy): 1000 mg/kg-day
NOEL (M, Nonneoplastic effects_Lymph nodes - Mesenteric, atrophy): 1000 mg/kg-day
LOEL (M, Nonneoplastic effects_Nose - Olfactory epithelium, degeneration): 250 mg/kg-day
LOEL (M, Nonneoplastic effects_Nose - Olfactory epithelium, hyperplasia): 250 mg/kg-day
LOEL (M, Nonneoplastic effects_Nose - Olfactory epithelium, inflammation, suppurative): 1000 mg/kg-day
NOEL (M, Nonneoplastic effects_Nose - Respiratory epithelium, hyperplasia): 1000 mg/kg-day
NOEL (M, Nonneoplastic effects_Nose - Respiratory epithelium, inflammation, chronic active): 1000 mg/kg-day
NOEL (M, Nonneoplastic effects_Spleen - Atrophy): 1000 mg/kg-day
LOEL (M, Nonneoplastic effects_Spleen - Extramedullary hematopoiesis, increased): 500 mg/kg-day
NOEL (M, Nonneoplastic effects_Testes - Germinal epithelium, degeneration): 1000 mg/kg-day
NOEL (M, Nonneoplastic effects_Testes - Interstitial cell, atrophy): 1000 mg/kg-day
NOEL (M, Nonneoplastic effects_Testes - Seminiferous tubule, spermatid retention): 1000 mg/kg-day
NOEL (M, Nonneoplastic effects_Thymus - Atrophy): 1000 mg/kg-day
NOEL (M, Nonneoplastic effects_Thymus - Lymphocyte, apoptosis): 1000 mg/kg-day
NOEL (M, Nonneoplastic effects_Thyroid gland - Follicular cell hypertrophy): 1000 mg/kg-day
LOEL (M, Organ weights_Liver - Absolute): 500 mg/kg-day
LOEL (M, Organ weights_Liver - Relative): 250 mg/kg-day
NOEL (M, Organ weights_R. adrenal gland - Absolute): 1000 mg/kg-day
NOEL (M, Organ weights_R. adrenal gland - Relative): 1000 mg/kg-day
NOEL (M, Organ weights_R. kidney - Absolute): 1000 mg/kg-day
LOEL (M, Organ weights_R. kidney - Relative): 500 mg/kg-day
NOEL (M, Organ weights_R. testis - Absolute): 1000 mg/kg-day
NOEL (M, Organ weights_Spleen - Absolute): 1000 mg/kg-day
NOEL (M, Organ weights_Spleen - Relative): 1000 mg/kg-day
LOEL (M, Organ weights_Thymus - Absolute): 1000 mg/kg-day
NOEL (M, Organ weights_Thymus - Relative): 1000 mg/kg-day
NOEL (M, Organ weights_Thyroid gland - Absolute): 1000 mg/kg-day
NOEL (M, Organ weights_Thyroid gland - Relative): 1000 mg/kg-day
LOEL (M, Reproductive toxicity_Altered sperm parameters): 1000 mg/kg-day
NOEL (M, Survival rates): 1000 mg/kg-day
LOEL (M, body weight): 1000 mg/kg-day
